Reference: patent publication US11629171B2, “Beta-hairpin peptidomimetics” (POLYPHOR AG, priority 2017, dated 2023)
Converted amounts (≈) assume the structure as drawn. Where a SMILES comes first, the peptide text is derived from it. Bridges are numbered along the chain shown (N, C = ends). Roman numbers before positions name the chains, in order. [ ]: non-standard residue; d: D form. Leu(3R-OH) = CC(C)[C@@H](O)[C@H](N)C(=O)O; Thr(ol) = C[C@@H](O)[C@H](N)CO; pGlu = O=C1CC[C@@H](C(=O)O)N1; Pen = CC(C)(S)[C@H](N)C(=O)O; Tle = CC(C)(C)[C@H](N)C(=O)O; dDab = NCC[C@@H](N)C(=O)O; Nle = CCCC[C@H](N)C(=O)O; Dab = NCC[C@H](N)C(=O)O; Dap = NC[C@H](N)C(=O)O

Tests used:
Format in all cases: cell-based
[1] = system: Pseudomonas aeruginosa ATCC 27853; details: ATCC 27853
How it was run: (§1)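 CLSI broth microdilution: inoculum ~10^6 CFU/mL in cation-adjusted Mueller-Hinton II broth, with peptide in serial two-fold dilutions plus Polysorbate 80 (0.002% final). MIC (μg/mL) is the lowest concentration without visible growth after 18-20 hours at 35° C.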

[2] = system: Acinetobacter baumannii DSM 30008; details: DSM 30008
How it was run: as §1

[3] = system: Enterobacter cloacae 848840; details: 848840
How it was run: as §1

[4] = system: Escherichia coli ATCC 25922; details: ATCC 25922
How it was run: as §1

[5] = system: Klebsiella pneumoniae SSI #3010; details: SSI #3010
How it was run: as §1

[6] = system: Acinetobacter baumannii 872842; details: 872842
How it was run: as §1

[7] = system: Klebsiella pneumoniae 968733; details: 968733
How it was run: as §1

Escherichia coli 926415 = details: 926415
How it was run: as §1

[8] = system: human red blood cells (hRBC); assay: Hemolysis; details: red cells of human, 1 h, 200
How it was run: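 Read-out is supernatant absorbance at 540 nm, normalised to full lysis by 2% Triton X-100 and zero lysis by PBS with 10% water. Peptides (200 μg/mL) were exposed to 20% v/v washed human erythrocytes at 37° C for 1 h under shaking.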

| Compound | MIC [1] [µg/mL] | MIC [2] [µg/mL] | MIC [3] [µg/mL] | MIC [4] [µg/mL] | MIC [5] [µg/mL] | MIC [6] [µg/mL] | MIC [7] [µg/mL] | MIC (Escherichia coli 926415) [µg/mL] | Hemolysis at 200 μg/mL [8] [%] |
| --- | --- | --- | --- | --- | --- | --- | --- | --- | --- |
| CCCC[C@H](NC(C)=O)C(=O)N[C@H](C(=O)N[C@@H](Cc1ccc(O)cc1)C(=O)N[C@H]1CSSC[C@@H](C(=O)N[C@H](C(=O)N[C@H](C(=O)N[C@H](C(N)=O)[C@@H](C)O)[C@@H](C)O)[C@@H](C)CC)NC(=O)[C@H](Cc2c[nH]c3ccccc23)NC(=O)[C@H](CO)NC(=O)[C@@H](CCN)NC(=O)[C@H](CCC(=O)N[C@@H](CCN)C(=O)N[C@H](C(=O)N[C@@H](CN)C(=O)N[C@H]2CCNC(=O)[C@H]([C@@H](C)O)NC(=O)[C@H](CCN)NC(=O)[C@H](CCN)NC(=O)[C@H]([C@H](O)C(C)C)NC(=O)[C@@H](CC(C)C)NC(=O)[C@H](CCN)NC2=O)[C@@H](C)O)NC1=O)[C@@H](C)O [Ex. 223] (I: Ac-[Nle]TYCE[dDab]SWCITT-NH2 / II: [Dab]T[Dap][Dab][Dab][dL][Leu(3R-OH)][Dab][Dab]T; disulfide I:4-I:9; amide I:5-II:N; lactam II:4-II:C) | 0.125 (≈ 0.0506 µM) | 0.03125 (≈ 0.0126 µM) | 0.0625 (≈ 0.0253 µM) | 0.03125 (≈ 0.0126 µM) | 0.0625 (≈ 0.0253 µM) | 0.03125 (≈ 0.0126 µM) | 0.25 (≈ 0.101 µM) | 0.125 (≈ 0.0506 µM) | <1 |
| CC(=O)N[C@H](C(=O)N[C@H](C(=O)N[C@@H](Cc1ccc(O)cc1)C(=O)N[C@H]1CSSC(C)(C)[C@@H](C(=O)N[C@H](C(=O)N[C@@H](CO)C(=O)N[C@H](C(N)=O)[C@@H](C)O)C(C)(C)C)NC(=O)[C@H](Cc2c[nH]c3ccccc23)NC(=O)[C@H](CCN)NC(=O)[C@@H](CCN)NC(=O)[C@H](CCC(=O)N[C@@H](CCN)C(=O)N[C@H](C(=O)N[C@@H](CN)C(=O)N[C@H]2CCNC(=O)[C@H]([C@@H](C)O)NC(=O)[C@H](CCN)NC(=O)[C@H](CCN)NC(=O)[C@H]([C@@H](C)O)NC(=O)[C@@H](CC(C)C)NC(=O)[C@H](CCN)NC2=O)[C@@H](C)O)NC1=O)[C@@H](C)O)C(C)C [Ex. 224] (I: Ac-VTYCE[dDab][Dab]W[Pen][Tle]ST-NH2 / II: [Dab]T[Dap][Dab][Dab][dL]T[Dab][Dab]T; disulfide I:4-I:9; amide I:5-II:N; lactam II:4-II:C) | 0.125 (≈ 0.0509 µM) | 0.0625 (≈ 0.0254 µM) | 0.125 (≈ 0.0509 µM) | 0.03125 (≈ 0.0127 µM) | 0.125 (≈ 0.0509 µM) | 0.0625 (≈ 0.0254 µM) | 0.25 (≈ 0.102 µM) | 0.125 (≈ 0.0509 µM) | 1 |
| CC(=O)N[C@H](C(=O)N[C@H](C(=O)N[C@@H](Cc1ccc(O)cc1)C(=O)N[C@H]1CSSC(C)(C)[C@@H](C(=O)N[C@H](C(=O)N[C@@H](CCC(=O)O)C(=O)N[C@H](C(N)=O)[C@@H](C)O)C(C)(C)C)NC(=O)[C@H](Cc2c[nH]c3ccccc23)NC(=O)[C@H](CCN)NC(=O)[C@@H](CCN)NC(=O)[C@H](CCC(=O)N[C@@H](CCN)C(=O)N[C@H](C(=O)N[C@@H](CN)C(=O)N[C@H]2CCNC(=O)[C@H]([C@@H](C)O)NC(=O)[C@H](CCN)NC(=O)[C@H](CCN)NC(=O)[C@H]([C@H](O)C(C)C)NC(=O)[C@@H](CC(C)C)NC(=O)[C@H](CCN)NC2=O)[C@@H](C)O)NC1=O)[C@@H](C)O)C(C)C [Ex. 225] (I: Ac-VTYCE[dDab][Dab]W[Pen][Tle]ET-NH2 / II: [Dab]T[Dap][Dab][Dab][dL][Leu(3R-OH)][Dab][Dab]T; disulfide I:4-I:9; amide I:5-II:N; lactam II:4-II:C) | 0.125 (≈ 0.0495 µM) | 0.125 (≈ 0.0495 µM) | 0.125 (≈ 0.0495 µM) | 0.0625 (≈ 0.0247 µM) | 0.0625 (≈ 0.0247 µM) | 0.25 (≈ 0.0989 µM) | 1 (≈ 0.396 µM) | 0.25 (≈ 0.0989 µM) | <1 |
| CC(=O)N[C@H](C(=O)N[C@@H](CN)C(=O)N[C@@H](Cc1ccc(O)cc1)C(=O)N[C@H]1CSSC[C@@H](C(=O)N[C@H](C(=O)N[C@@H](CC(=O)O)C(=O)N[C@H](C(N)=O)[C@@H](C)O)C(C)(C)C)NC(=O)[C@H](Cc2c[nH]c3ccccc23)NC(=O)[C@H](CO)NC(=O)[C@@H](CCN)NC(=O)[C@H](CCC(=O)N[C@@H](CCN)C(=O)N[C@H](C(=O)N[C@@H](CN)C(=O)N[C@H]2CCNC(=O)[C@H]([C@@H](C)O)NC(=O)[C@H](CCN)NC(=O)[C@H](CCN)NC(=O)[C@H](CC(C)C)NC(=O)[C@@H](CC(C)C)NC(=O)[C@H](CCN)NC2=O)[C@@H](C)O)NC1=O)C(C)C [Ex. 227] (I: Ac-V[Dap]YCE[dDab]SWC[Tle]DT-NH2 / II: [Dab]T[Dap][Dab][Dab][dL]L[Dab][Dab]T; disulfide I:4-I:9; amide I:5-II:N; lactam II:4-II:C) | 0.125 (≈ 0.0512 µM) | 0.03125 (≈ 0.0128 µM) | 0.125 (≈ 0.0512 µM) | 0.03125 (≈ 0.0128 µM) | 0.125 (≈ 0.0512 µM) | 0.125 (≈ 0.0512 µM) | 0.5 (≈ 0.205 µM) | 0.125 (≈ 0.0512 µM) | <1 |
| CC(=O)N[C@@H]1C(=O)N[C@@H]([C@@H](C)O)C(=O)N[C@@H](Cc2ccc(O)cc2)C(=O)N[C@@H](CCN)C(=O)N[C@@H](CCC(=O)N[C@@H](CCN)C(=O)N[C@H](C(=O)N[C@@H](CN)C(=O)N[C@H]2CCNC(=O)[C@H]([C@@H](C)O)NC(=O)[C@H](CCN)NC(=O)[C@H](CCN)NC(=O)[C@H](CC(C)C)NC(=O)[C@@H](CC(C)C)NC(=O)[C@H](CCN)NC2=O)[C@@H](C)O)C(=O)N[C@H](CCN)C(=O)N[C@@H](CCN)C(=O)N[C@@H](Cc2c[nH]c3ccccc23)C(=O)N[C@@H](CCC(=O)O)C(=O)N[C@@H](C(C)(C)C)C(=O)N[C@@H](C)C(=O)N[C@H](C(N)=O)CSSC1(C)C [Ex. 228] (I: Ac-[Pen]TY[Dab]E[dDab][Dab]WE[Tle]AC-NH2 / II: [Dab]T[Dap][Dab][Dab][dL]L[Dab][Dab]T; disulfide I:1-I:12; amide I:5-II:N; lactam II:4-II:C) | 0.25 (≈ 0.101 µM) | 1 (≈ 0.403 µM) | 8 (≈ 3.22 µM) | 0.5 (≈ 0.201 µM) | 0.25 (≈ 0.101 µM) | 4 (≈ 1.61 µM) | 1 (≈ 0.403 µM) | 1 (≈ 0.403 µM) | <1 |
| CC(C)C[C@@H]1NC(=O)[C@@H](CC(C)C)NC(=O)[C@H](CCN)NC(=O)[C@@H](NC(=O)[C@H](CN)NC(=O)[C@@H](NC(=O)[C@H](CCN)NC(=O)CC[C@@H]2NC(=O)[C@H](CN)NC(=O)[C@H](Cc3ccc(O)cc3)NC(=O)[C@@H](NC(=O)[C@@H](NC(=O)[C@@H]3CCC(=O)N3)C(C)C)CSSC[C@@H](C(=O)N[C@H](CO)[C@@H](C)O)NC(=O)[C@H](C(C)(C)C)NC(=O)[C@H](CO)NC(=O)[C@H](Cc3c[nH]c4ccccc34)NC(=O)[C@H]([C@@H](C)O)NC(=O)[C@@H](CCN)NC2=O)[C@@H](C)O)CCNC(=O)[C@H]([C@@H](C)O)NC(=O)[C@H](CCN)NC(=O)[C@H](CCN)NC1=O [Ex. 232] (I: [pGlu]VCY[Dap]E[dDab]TWS[Tle]C[Thr(ol)] / II: [Dab]T[Dap][Dab][Dab][dL]L[Dab][Dab]T; disulfide I:3-I:12; amide I:6-II:N; lactam II:4-II:C) | 0.125 (≈ 0.0503 µM) | 0.0625 (≈ 0.0252 µM) | 0.125 (≈ 0.0503 µM) | 0.0625 (≈ 0.0252 µM) | 0.125 (≈ 0.0503 µM) | 0.0625 (≈ 0.0252 µM) | 0.125 (≈ 0.0503 µM) | 0.0625 (≈ 0.0252 µM) | <1 |
